Values quoted from earlier work in patent publication US9078816B2, “Buccal, polar and non-polar spray containing ondansetron” (Suda Ltd., priority 1997, dated 2015).

Assays:
[1] = include headaches, constipation, and dizziness

- metabolism (liver): extensively metabolized by the liver
- oral bioavailability (oral administration): about 60%
SMILES: Cc1nccn1CC1CCc2c(c3ccccc3n2C)C1=O (stereo not drawn) [Ondansetron]
- adverse effects [1]: mild
